In brackets after ≈: the same amount, converted by molar mass.
Legend:
Assay in all cases: MIC against standard strain, plate method
Assay type in all cases: cell-based
Escherichia coli NIHJ = conditions: unit assumed
Description: (§1) The minimum inhibitory concentrations (MIC) was determined by the plate method disclosed in "Chemotherapy" (Japan), Vol. 16, (1968), pages 98 - 99. The culture medium used was a Heart infusion agar (pH 7.4). The number of the cells per plate used in the inoculum as 10^4 (10^6 cells/ml).

Klebsiella pneumoniae = conditions: unit assumed
Description: as §1

Proteus vulgaris 3027 = conditions: Proteus vulgaris 3027, standard strain; unit assumed
Description: as §1

[1] = tested on: Pseudomonas aeruginosa I.F.O.; conditions: unit assumed
Description: as §1

[2] = tested on: Staphylococcus aureus 209p; conditions: unit assumed
Description: as §1

| Compound | MIC (Escherichia coli NIHJ) [µg/mL] | MIC (Klebsiella pneumoniae) [µg/mL] | MIC (Proteus vulgaris 3027) [µg/mL] | MIC [1] [µg/mL] | MIC [2] [µg/mL] |
| --- | --- | --- | --- | --- | --- |
| CC1(C)S[C@@H]2[C@H](NC(=O)[C@H](NC(=O)N3CCN(Cc4ccccc4)C(=O)C3)c3ccccc3)C(=O)N2[C@H]1C(=O)O [compound 23] | < 1.57 | 6.25 (≈ 11 µM) | 3.13 (≈ 5.53 µM) | 25 (≈ 44.2 µM) | < 1.57 |
| CC1(C)S[C@@H]2[C@H](NC(=O)[C@H](NC(=O)N3CC(=O)N(C(=O)c4ccccc4)CC3=O)c3ccccc3)C(=O)N2[C@H]1C(=O)O [compound 34] | 3.13 (≈ 5.27 µM) | 50 (≈ 84.2 µM) | 50 (≈ 84.2 µM) | 100 (≈ 168 µM) | 1.57 (≈ 2.64 µM) |
| CN1CCN(C(=O)N[C@@H](C(=O)N[C@@H]2C(=O)N3[C@@H]2SC(C)(C)[C@@H]3C(=O)O)c2ccc(O)cc2)C(=O)C1=O (single isomer, unassigned) [compound 48] | < 0.4 | 25 (≈ 48.1 µM) | < 0.4 | 6.25 (≈ 12 µM) | < 0.4 |
| CC1(C)S[C@@H]2[C@H](NC(=O)[C@H](NC(=O)N3CCN(S(C)(=O)=O)CC3=O)c3ccccc3)C(=O)N2[C@H]1C(=O)O [compound 5] | < 1.57 | 12.5 (≈ 22.6 µM) | < 1.57 | 25 (≈ 45.2 µM) | < 1.57 |
| CCN1CC(C)N(C(=O)NC(C(=O)NC2C(=O)N3C(C(=O)O)=C(CSc4nnnn4C)CSC23)c2ccccc2)C(=O)C1=O (stereo not shown) [compound 66] | < 0.79 | 0.79 (≈ 1.23 µM) | < 1.57 | 25 (≈ 38.8 µM) | < 0.79 |
| CC1(C)S[C@@H]2[C@H](NC(=O)[C@H](NC(=O)N3CCN(CCCl)C(=O)C3=O)c3ccccc3)C(=O)N2[C@H]1C(=O)O [compound 44] | < 1.57 | < 1.57 | < 1.57 | 6.25 (≈ 11.3 µM) | < 1.57 |
| CN1CCN(C(=O)NC(C(=O)NC2C(=O)N3C(C(=O)O)=C(CSc4nncn4C)CSC23)c2ccccc2)C(=O)C1=O (single isomer, unassigned) [compound 65] | 0.79 (≈ 1.29 µM) | 3.13 (≈ 5.09 µM) | 3.13 (≈ 5.09 µM) | 25 (≈ 40.7 µM) | 3.13 (≈ 5.09 µM) |
| CC(=O)OCCN1CCN(C(=O)N[C@@H](C(=O)N[C@@H]2C(=O)N3[C@@H]2SC(C)(C)[C@@H]3C(=O)O)c2ccccc2)C(=O)C1=O (single isomer, unassigned) [compound 41] | < 1.57 | 6.25 (≈ 10.9 µM) | < 1.57 | 25 (≈ 43.4 µM) | < 1.57 |

— patent US4110327A, “2,3 Diketo-piperazinocarbonylamino alkanoic acids and derivatives” (Toyama Chemical Co., Ltd., priority 1974, dated 1978)
